Data set [1] has as its system Plasmodium falciparum. Description: NOVARTIS: Inhibition of Plasmodium falciparum 3D7 (drug-susceptible) proliferation in erythrocyte-based infection assay. The class given is functional, organism-based. To be noted: Plasmodium falciparum, 3D7.
Data set [2] concerns Plasmodium falciparum. Description: NOVARTIS: Inhibition of Plasmodium falciparum W2 (drug-resistant) proliferation in erythrocyte-based infection assay. Type of data set: functional, organism-based. To be noted: Plasmodium falciparum, W2; read-out: EC50.
Data set [3] is described as follows: NOVARTIS: Cytotoxicity against human hepatocellular carcinoma cell line (Huh7). The class given is toxicity, cell-based, Huh-7. To be noted: Huh7 cells (hepatocellular carcinoma cell line).

This note sets out measurements from ChEMBL document CHEMBL1156829 (Proc Natl Acad Sci U S A, 2008).

A word on the EC50: it is the concentration needed to bring the measured effect to its halfway point. What is called CC50 is the concentration giving 50% cytotoxicity. Low readings indicate greater toxicity to the cells, high ones lower toxicity to the cells.

For `c1ccc(CCNc2ncnc3c2[nH]c2ccccc23)cc1`, the EC50 in the data set with Plasmodium falciparum [1] turned out to be 167 nM; with Plasmodium falciparum [2] it was 136 nM. The CC50 in data set [3] amounted to 15600 nM.
Turning to `CC(Cc1ccsc1)Nc1nc2nonc2nc1N(C)C` (stereo not drawn), the 50% effective concentration (EC50) is 810 nM with Plasmodium falciparum [1] and 881 nM with Plasmodium falciparum [2]. In addition, the cytotoxic concentration (CC50) in data set [3] was above 100000 nM.
Taken in the same sequence, the figures for `Clc1cccc(Cl)c1C[n+]1ccc2ccccc2c1` were 1890 nM, 867 nM and above 100000 nM.
In the case of `Cc1ccc2[nH]c(C)c(Br)c(=O)c2c1`, the EC50 in the data set with Plasmodium falciparum [1] was found to be 1240 nM; with Plasmodium falciparum [2] it was 884 nM. The compound further came in with a cytotoxic concentration (CC50) in data set [3] above 100000 nM.
Taken in the same sequence, the figures for `CN(C)CCCNc1ncnc2c1[nH]c1ccc(Br)cc12` were 48.1 nM, 231 nM and 26500 nM.
Taken in the same sequence, the figures for `O=C(C1CC1)N1CCOc2c(cc(-c3csc4ccccc34)cc2OCCc2ccccn2)C1` were 711 nM, 594 nM and 68200 nM.
`COCCOC(=O)C1=C(C)NC2=C(C(=O)CCC2)C1c1ccc(OC)c(OC)c1OC` (stereo not drawn): the 50% effective concentration (EC50) is above 6970 nM with Plasmodium falciparum [1] and 870 nM in the data set with Plasmodium falciparum [2]. In data set [3], this compound had a cytotoxic concentration (CC50) above 100000 nM.
On the same counts, the results for `O=C(Nc1ccccc1)C(=Cc1ccncc1)NC(=O)c1ccccc1` are above 2700 nM, 870 nM and above 100000 nM.
Taken in the same sequence, the figures for `CCCCCCCCCCCCCC(=O)Oc1ccccc1-c1nc2cc(C)ccn2c1NC(C)(C)CC(C)(C)C` were 1520 nM, 88.4 nM and above 10000 nM.
Taken in the same sequence, the figures for `CCOC(=O)c1c(CN2CCN(CC#N)CC2)n(Cc2ccccc2)c2cc(Br)c(O)cc12` were 1180 nM, 884 nM and above 100000 nM.
Turning to `C#CCN1c2ccccc2Sc2cccnc21`, the EC50 in the data set on Plasmodium falciparum [1] came to 50.4 nM; in the data set on Plasmodium falciparum [2], 321 nM. This compound came in with a CC50 in data set [3] of 36400 nM.
On the same counts, the results for `CCOC(=O)c1cc(S(=O)(=O)NCc2ccc(F)cc2)n[nH]1` are above 847 nM, 88.1 nM and above 10000 nM.
Taken in the same sequence, the figures for `OC(CNCc1ccco1)Cn1c2ccc(Cl)cc2c2cc(Cl)ccc21` (stereo not drawn) were 5050 nM, 881 nM and above 100000 nM.
On the same counts, the results for `CSc1nc(SC)c2c3c(sc2n1)CN(C)CC3` are 750 nM, 881 nM and above 100000 nM.
For `CC(=O)N(C1=C(N(C)C)C(=O)c2ccccc2C1=O)c1ccc(Cl)c(Cl)c1`, the EC50 in the data set with Plasmodium falciparum [1] turned out to be 82 nM; in the data set with Plasmodium falciparum [2], 73.4 nM. For the same compound, in data set [3], the CC50 is 8350 nM.
With `Fc1ccc(-c2c[n+](Cc3ccc(Cl)cc3Cl)c3n2CCC3)cc1`, the values for the EC50 with Plasmodium falciparum [1] and with Plasmodium falciparum [2] were 1450 nM and 880 nM, respectively. In data set [3], this compound showed a 50% cytotoxic concentration (CC50) above 100000 nM.
Taken in the same sequence, the figures for `CCCCCCCC[n+]1c(C)n(C)c2cc(Cl)c(Cl)cc21` were 527 nM, 356 nM and 40500 nM.
Taken in the same sequence, the figures for `COC(=O)c1c(NC(=O)c2ccc(S(=O)(=O)N3CCOCC3)cc2)sc2c1CCN(C(C)=O)C2` were 8660 nM, 878 nM and above 100000 nM.
With `CC(C)(C)C(=O)Cn1ccc(=N)c2ccccc21`, the half-maximal effective concentration (EC50) in the data set on Plasmodium falciparum [1] was found to be 2030 nM; with Plasmodium falciparum [2] it was 877 nM. Also, the CC50 in data set [3] was above 100000 nM.
Consider `CC(C)CNC(=O)c1ccc(OC2CCN(CC3CCCCC3)CC2)c(Cl)c1`, for which the values for the EC50 in the data set with Plasmodium falciparum [1] and with Plasmodium falciparum [2] were 326 nM and 130 nM, respectively. In addition, it took 14800 nM to reach half-maximal cytotoxicity in data set [3] (CC50).
Taken in the same sequence, the figures for `COc1ccc(OC)c(-c2ccc(O)c(CN3CCCCCC3)c2)c1` were 570 nM, 87.6 nM and above 10000 nM.
Take `O=C(NCCCN1CCCCC1)c1ccc2c(c1)sc1nc(-c3ccc(F)cc3)cn12`: the 50% effective concentration (EC50) with Plasmodium falciparum [1] was 694 nM; with Plasmodium falciparum [2] it was 870 nM. Further, in data set [3], the cytotoxic concentration (CC50) was above 100000 nM.
On the same counts, the results for `N#Cc1ccc2c(c1)nc1c3ccc4c5c(ccc(c(=O)n21)c53)C(=O)NC4=O` are 3940 nM, 867 nM and above 100000 nM.
On the same counts, the results for `CCc1ccc(C(=O)C[n+]2cc(-c3ccc(OC)cc3)n3c2CCC3)cc1` are 677 nM, 857 nM and above 98000 nM.
Taken in the same sequence, the figures for `Cc1cccc2c1[nH]c1nc(SCC(C)C)nnc12` were 1480 nM, 873 nM and above 100000 nM.
For the compound `COc1cc2c(cc1OC)C1Cc3ccc(OC)c(OC)c3CN1CC2` (stereo not drawn), the concentration for a half-maximal effect (EC50) with Plasmodium falciparum [1] is 2600 nM; with Plasmodium falciparum [2] it was 871 nM. The CC50 in data set [3] was above 100000 nM.
On the same counts, the results for `CCCC(=O)N1c2ccc(OC)cc2-c2c(ssc2=S)C1(C)C` are 791 nM, 867 nM and above 100000 nM.
Taken in the same sequence, the figures for `O=C1C(Nc2ccc(F)cc2)=C(N2CCCCC2)C(=O)c2ccccc21` were 335 nM, 319 nM and 36800 nM.
On the same counts, the results for `COc1c(C=NNc2nc(Nc3ccc([N+](=O)[O-])cc3)nc(N3CCN(C)CC3)n2)cccc1[N+](=O)[O-]` are 340 nM, 493 nM and 56900 nM.
As to `C[n+]1oc(/C=C/c2ccccc2)cc1/C=C/c1ccccc1`, the EC50 is 110 nM in the data set on Plasmodium falciparum [1] and 88.8 nM in the data set with Plasmodium falciparum [2]. The compound further displayed a CC50 in data set [3] above 10000 nM.
For the compound `CN(CCCNc1ccnc2cc(Cl)ccc12)C(=O)c1ccc(Cl)cc1`, the half-maximal effective concentration (EC50) in the data set on Plasmodium falciparum [1] turned out to be 122 nM; in the data set on Plasmodium falciparum [2] it was 75.6 nM. The CC50 in data set [3] was above 8530 nM.
On the same counts, the results for `O=C1c2ccccc2C(=O)c2c1ccc1nonc21` are 121 nM, 88.6 nM and above 10000 nM.
Taken in the same sequence, the figures for `Nc1ccc(C(=O)Nc2ccc(-c3nc4ccccc4o3)cc2)cc1` were 935 nM, 893 nM and above 100000 nM.
On the same counts, the results for `COc1cc(Br)c(C2CC(=O)Nc3ccc4ccccc4c32)cc1OC` (stereo not drawn) are 386 nM, 307 nM and 34400 nM.
Turning to `Cn1nccc1C(OCC(=O)N1CCOCC1)c1ccc(F)cc1` (stereo not drawn), the 50% effective concentration (EC50) worked out at 134 nM with Plasmodium falciparum [1] and 89.2 nM in the data set on Plasmodium falciparum [2]. Besides, the 50% cytotoxic concentration (CC50) in data set [3] is above 10000 nM.
As for `CCn1c(N=Nc2ccc(OC)cc2)nc2ccccc21`, the concentration giving a half-maximal response (EC50) in the data set on Plasmodium falciparum [1] was determined as 97.5 nM; in the data set with Plasmodium falciparum [2] it was 115 nM. The compound also came in with a CC50 in data set [3] of 13000 nM.
On the same counts, the results for `Cc1ccc(Cl)cc1N1CCN(S(=O)(=O)c2ccc3c(c2)oc(=O)n3C)CC1` are above 12500 nM, 882 nM and above 100000 nM.
For `CSc1cccc(NC(=O)C2C3C=CC4(O3)C2C(=O)N(Cc2ccc(F)cc2)C4C(=O)NC2CCCC(C)C2C)c1` (stereo not drawn), the 50% effective concentration (EC50) in the data set with Plasmodium falciparum [1] was 1430 nM; with Plasmodium falciparum [2], 875 nM. In addition, the CC50 in data set [3] was above 100000 nM.
On the same counts, the results for `N#Cc1ccc(NC(=O)NC2CC3CCCC(C2)N3CCc2ccccc2)cc1` (stereo not drawn) are 362 nM, 425 nM and 48600 nM.
On the same counts, the results for `CCCCCCCCCC(=O)Oc1ccccc1-c1nc2cc(C)ccn2c1NC(C)(C)CC(C)(C)C` are 1010 nM, 88.8 nM and above 10000 nM.
With `Cc1nc2sccn2c1-c1csc(Nc2ccccn2)n1`, the concentration for a half-maximal effect (EC50) in the data set with Plasmodium falciparum [1] was found to be 381 nM; in the data set with Plasmodium falciparum [2], 889 nM. The CC50 in data set [3] was above 100000 nM.
